For the assay, the system named is C3AKF1 mice, hamster liver cystadenocarcinoma s.c., tumor weight T/C. The experiment in a line: NCI In Vivo Anticancer Drug Screen. Data for tumor model Cystadenocarcinoma, Liver (No. 1) (Hamster) (subcutaneous) in C3AKF1 (CHKRF1) mice. The note with it: endpoint: mean tumor weight, schedule: Q01DX010 (ip), higher = larger tumour. The procedure:
The antitumor activity of compounds was measured in mice bearing transplantable tumors. Survival or tumor size were measured and the results are expressed as the measurement made in the treated group (T) divided by the measurement made in the vehicle treated control group (C). The tumor model used in this assay is Cystadenocarcinoma, Liver (No. 1) (Hamster) (subcutaneous) in C3AKF1 (CHKRF1) mice

[1] abbreviates: dose: 25.0 mg/kg/injection, vehicle: carboxymethylcellulose (CMC).
[2] abbreviates: dose: 50.0 mg/kg/injection, vehicle: carboxymethylcellulose (CMC).
Setting [3] is: dose: 125.0 mg/kg/injection, vehicle: carboxymethylcellulose (CMC).
[4] abbreviates: dose: 250.0 mg/kg/injection, vehicle: carboxymethylcellulose (CMC).
Setting [5] is: dose: 3.0 mg/kg/injection, vehicle: carboxymethylcellulose (CMC).
Setting [6] is: dose: 6.0 mg/kg/injection, vehicle: carboxymethylcellulose (CMC).
[7] abbreviates: dose: 12.0 mg/kg/injection, vehicle: carboxymethylcellulose (CMC).
Where [8] appears, read: dose: 18.0 mg/kg/injection, vehicle: carboxymethylcellulose (CMC).

Drawing on PubChem BioAssay AID234 (DTP/NCI, 2004), this text covers T/C for 17 compounds.

Where “and” joins values, the source holds several entries; their conditions need not be identical. Identical values can stand only once. Records with an inconclusive call do not appear.

Turning to `O=C(O)C1(NO)CCCC1`, the T/C by setting is: (dose: 12.5 mg/kg/injection, vehicle: carboxymethylcellulose (CMC)) 76 % of control; under setting [1], 108 % of control; under setting [2], 104 % of control; (dose: 100.0 mg/kg/injection, vehicle: carboxymethylcellulose (CMC)) 80 % of control.
As for `C=CC(=O)NCNC(=O)C=C`, the T/C (dose: 15.0 mg/kg/injection, vehicle: saline) was 66 % of control; the T/C (dose: 30.0 mg/kg/injection, vehicle: saline) was 119 % of control; the T/C (dose: 60.0 mg/kg/injection, vehicle: saline) was 62 % of control; the T/C (dose: 120.0 mg/kg/injection, vehicle: saline) is 77 % of control.
Take `Cc1ccc(N=NN(C)C)cc1`: the T/C runs as follows: under setting [1], 96 % of control; under setting [2], 93 % of control.
Regarding `Cc1cc(N)c2cc(NC(=O)CCCCCCCCC(=O)Nc3ccc4nc(C)cc(N)c4c3)ccc2n1`, the T/C (dose: 31.0 mg/kg/injection, vehicle: carboxymethylcellulose (CMC)) is 68 % of control; the T/C (dose: 62.0 mg/kg/injection, vehicle: carboxymethylcellulose (CMC)) is 50 % of control; the T/C under setting [3] was 38 % of control.
For the compound `O=CC(O)CO` (configuration not stated), the T/C is, setting by setting: under setting [3], 120 % of control; under setting [4], 108 % of control.
On to `C1CC[N-]CC1.C1CC[N-]CC1.C1CC[N-]CC1.C1CC[N-]CC1.[Cl][Co][Cl]`, for which the T/C is 84 % of control (dose: 35.0 mg/kg/injection, vehicle: saline); 82 % of control (dose: 55.0 mg/kg/injection, vehicle: saline); 71 % of control (dose: 80.0 mg/kg/injection, vehicle: saline).
Turning to `O=C(c1ccc(C(=O)N2CC2)cc1)N1CC1`, the T/C reads like this: under setting [5], 69 % of control; under setting [6], 85 % of control; under setting [7], 166 % of control; (dose: 24.0 mg/kg/injection, vehicle: carboxymethylcellulose (CMC)) 98 % of control.
Regarding `Nc1ccc2ccccc2c1N=Nc1ccccc1`, the T/C reads like this: (dose: 62.5 mg/kg/injection, vehicle: carboxymethylcellulose (CMC)) 73 % of control; under setting [3], 79 % of control.
On to `CSc1ncc(Br)c(Sc2nc(N)nc3nc[nH]c23)n1`, for which the T/C is 106 % of control (dose: 1.5 mg/kg/injection, vehicle: carboxymethylcellulose (CMC)); 117 % of control under setting [5]; 92 % of control under setting [6]; 74 % of control and 85 % of control and 92 % of control under setting [7]; 103 % of control under setting [8]; 77 % of control and 81 % of control (dose: 27.0 mg/kg/injection, vehicle: carboxymethylcellulose (CMC)). For the same compound, where the note is “dose: 40.0 mg/kg/injection, vehicle: carboxymethylcellulose (CMC)”, the T/C was 65 % of control.
On to `N#C[C@@H]1C2C=CC(CC2)[C@H]1C#N`, for which the T/C is, setting by setting: (dose: 0.5 mg/kg/injection, vehicle: carboxymethylcellulose (CMC)) 72 % of control; (dose: 1.0 mg/kg/injection, vehicle: carboxymethylcellulose (CMC)) 68 % of control; (dose: 2.0 mg/kg/injection, vehicle: carboxymethylcellulose (CMC)) 57 % of control.
On to `CS(=O)(=O)OCCCCCCCCCOS(C)(=O)=O`, for which the T/C runs as follows: (dose: 8.0 mg/kg/injection, vehicle: carboxymethylcellulose (CMC)) 99 % of control; (dose: 16.0 mg/kg/injection, vehicle: carboxymethylcellulose (CMC)) 82 % of control.
Regarding `COc1cc(OC)c(OC)cc1/C=C\c1ccnc2ccccc12`, the T/C runs as follows: (dose: 63.0 mg/kg/injection, vehicle: carboxymethylcellulose (CMC)) 104 % of control; under setting [3], 97 % of control; under setting [4], 95 % of control.
For `CN(C)CCCN1c2ccccc2Sc2ccc(C(F)(F)F)cc21`, the T/C (dose: 12.0 mg/kg/injection, vehicle: saline) was 84 % of control.
`CCCNC(=NC)c1ccc(NC(=O)c2ccc(C(=O)Nc3ccc(C(=NC)NCCC)cc3)cc2)cc1`: the T/C under setting [7] is 99 % of control.
With `Fc1ccc(CSc2ncnc3c2ncn3C2CCCCO2)cc1` (configuration not stated), the T/C runs as follows: (dose: 45.0 mg/kg/injection, vehicle: carboxymethylcellulose (CMC)) 102 % of control; (dose: 90.0 mg/kg/injection, vehicle: carboxymethylcellulose (CMC)) 111 % of control; (dose: 360.0 mg/kg/injection, vehicle: carboxymethylcellulose (CMC)) 57 % of control and 78 % of control; (dose: 720.0 mg/kg/injection, vehicle: carboxymethylcellulose (CMC)) 75 % of control.
As to `CC1CN1C(=O)c1cc(C(=O)N2CC2C)cc(C(=O)N2CC2C)c1` (configuration not stated), the T/C runs as follows: (dose: 15.0 mg/kg/injection, vehicle: carboxymethylcellulose (CMC)) 83 % of control; (dose: 30.0 mg/kg/injection, vehicle: carboxymethylcellulose (CMC)) 84 % of control; (dose: 60.0 mg/kg/injection, vehicle: carboxymethylcellulose (CMC)) 118 % of control.
As for `c1ccc(CSc2ncnc3nc[nH]c23)nc1`, the T/C runs as follows: under setting [8], 85 % of control; (dose: 37.0 mg/kg/injection, vehicle: carboxymethylcellulose (CMC)) 89 % of control; (dose: 75.0 mg/kg/injection, vehicle: carboxymethylcellulose (CMC)) 90 % of control and 104 % of control; (dose: 150.0 mg/kg/injection, vehicle: carboxymethylcellulose (CMC)) 86 % of control.
